The source of these data is patent publication US6410545B1, “Lipid lowering quinazoline dietary supplement composition” (Parker Hughes Institute, priority 1998, dated 2002).

One experiment deals with apo e−/− mice. Briefly: Serum total cholesterol in apolipoprotein E deficient mice. It is filed as in vivo. The following applies: apo e−/− (C57B1/6) mice, Western diet two weeks, then drug 1 week at 40 mg/kg/day. Here is the method:
Three- to four-week old apolipoprotein E deficient (apo E^−/−) mice were the progeny of breeding pairs of apo E knockout (apo EKO) mice obtained from Jackson Labs. (Bar Harbor, Me., USA). Mice were fed either regular rodent chow (5% fat and 0% cholesterol) (Teklad-LM 485, Harlan Teklad, Madison, Wis., USA), the Paigen's cocoa butter diet, or the Western diet (21.22% fat and 0.2% cholesterol) (Harlan Teklad, Madison, Wis., USA) for two weeks prior to treatment.
(§1) Animals were treated with test compounds by intraperitoneal injection daily for 7 days. A range of doses was administered. Control animals received vehicle alone. The effect of quinazoline derivatives on total cholesterol, LDL, HDL, liver enzymes, and glucose was analyzed. The mice tissues were also examined histologically.
(§2) Serum total cholesterol was measured enzymatically using the cholesterol kit from Sigma Chemical Co. (St. Louis, Mo., USA). For liver tissue lipid measurements, lipids were extracted from homogenized hepatic tissues using the method of Bligh and Dyer (Bligh, et al., Can. J. Biochem. Phys. 1959, 37:911-917). One gram of liver tissue was homogenized in 1 ml of distilled water and extracted with 4 ml of chloroform/methanol (1:1, v/v). The chloroform phase containing the lipids was evaporated under a stream of nitrogen, the lipids dissolved in 100 μL of isopropanol, and subjected to cholesterol determination as described above. Triglyceride (TG) contents were determined using the TG kit from Sigma Chemical Co.
On regular rodent chow, the serum total cholesterol level of apo e^−/− mice was 836±57 mg/dL (n=47). After one week therapy with 8 mg/kg/day WHI-P164 (n=12), the mean serum total cholesterol level was reduced to 551±29 mg/dL (p=0.02).
When challenged with a cholesterol-rich diet, these animals developed frank hypercholesterolemia due to delayed clearance of intestinal chylomicrons which shuttle the dietary cholesterol from the intestine to the liver. In the present study, all of the 46 ApoE-deficient mice that were fed Western diet (14) became severely hypercholesterolemic with a mean serum total cholesterol level of 1491±59 mg/dL. One week WHI-P164 therapy reduced the mean serum total cholesterol level of hypercholesterolemic apo e^−/− mice to 1194±84 mg/dL (p=O.006) at a dose level of 8 mg/kg/day (n=19) and to 876±57 mg/dL (p<0.0001) at a dose level of 40 mg/kg/day (n=17) (Table 3).

Experiment [1] has as its system hypercholesterolemic C57B⅙ mice. In words: Serum total cholesterol in hypercholesterolemic C57B⅙ mice on Paigen's cocoa butter diet. The following applies: apo e+/+ C57B1/6 mice, cocoa butter diet two weeks, then drug 1 week at 1.6 mg/kg/day i.p. It is filed as in vivo. As for the experimental part: Three- to four-week old C57B⅙ male mice (Taconic, Germantown, N.Y., USA) were kept in micro-isolator cages on a 12-hour day/night cycle and fed the Paigen's cocoa butter diet (15.8% fat, 1.25% cholesterol, and 0.5% sodium cholate) (Harlan Teklad, Madison, Wis., USA) for two weeks prior to initiation of lipid lowering therapy. Paigen's diet is described in Nishina et.al., 1993, J. Lipid Res. 34: 1413-1422.
as §1, §2
A high cholesterol and high fat diet was used to induce hypercholesterolemia in C57B⅙mice, using the methods described by Paigen, et al. (Nishina, et al., 1993, J. Lipid Res. 34:1413-1422) and as described for Example 1.

`COc1cc2ncnc(Nc3cc(Br)c(O)c(Br)c3)c2cc1OC` [WHI-P97, 4-(3′,5′-Dibromo-4′-hydroxylphenyl)-amino-6,7-dimethoxyquinazoline]: the Serum total cholesterol with apo e−/− mice was determined as 1129 ± 46 mg/dL; in experiment [1] it was 413 ± 18 mg/dL. The like results for `COc1cc2ncnc(Nc3ccc(C)c(Br)c3)c2cc1OC` [WHI-P111, 4-(3′-Bromo-4′-methylphenyl)-amino-6,7-dimethoxyquinazoline] were, in that order, 1425 ± 92 mg/dL and 406 ± 11 mg/dL. The like results for `COc1cc2ncnc(Nc3ccc(O)cc3)c2cc1OC` [WHI-P131, 4-(4′-Hydroxylphenyl)-amino-6,7-dimethoxyquinazoline] were, in that order, 1532 ± 77 mg/dL and 433 ± 20 mg/dL. In turn, `COc1cc2ncnc(Nc3ccccc3O)c2cc1OC` [WHI-P132, 4-(2′-Hydroxylphenyl)-amino-6,7-dimethoxyquinazoline] yielded a Serum total cholesterol with apo e−/− mice of 1774 ± 61 mg/dL. Consider `COc1cc2ncnc(Nc3ccc(O)c(Br)c3)c2cc1OC` [WHI-P154, 4-(3′-Bromo-4′-hydroxylphenyl)-amino-6,7-dimethoxyquinazoline], for which, in the experiment with apo e−/− mice, the Serum total cholesterol was determined as 1492 ± 110 mg/dL.

For the molecule `COc1cc2ncnc(Nc3ccc(O)c(Cl)c3)c2cc1OC` [WHI-P197, 4-(3′-Chloro-4′-hydroxylphenyl)-amino-6,7-dimethoxyquinazoline], the Serum total cholesterol is 1621 ± 146 mg/dL with apo e−/− mice and 372 ± 20 mg/dL in experiment [1].
